{"source": "patent US20240197687A1", "about": "“METHODS OF TREATING NEUROINFLAMMATION AND INHIBITING MONOAMINE OXIDASE-A AND RESTORING/UPREGULATING/INCREASING IL-13 AND AND PGC-1 BY ADMINISTERING ORAL DOSAGE FORM CONTAINING MICRONIZED AND NONMICRONIZED PARTICULATE METAXALONE, ALGINIC ACID AND PROPYLENE GLYCOL ALGINATE” (Primus Pharmaceuticals, Inc., priority 2022, published 2024)", "key": {"CCI mice": {"system": "CCI mice", "conditions": "cited from earlier work"}, "PINP rats": {"system": "PINP rats", "conditions": "cited from earlier work"}, "RIM rats": {"system": "RIM rats", "conditions": "melatonin supplementation, gastrocnemius muscle; cited from earlier work"}, "FM fibroblasts": {"system": "FM fibroblasts", "conditions": "AMPK activation; cited from earlier work"}, "[1]": {"system": "rat model of ischemia-reperfusion injury", "conditions": "cited from earlier work"}, "[2]": {"system": "paclitaxel-induced neuropathic pain", "conditions": "via induction of the NRF-2/HO-1 signaling pathway in the spinal cord; cited from earlier work"}, "[3]": {"system": "rat periodontal disease model", "conditions": "MAO up-regulation triggered by LPS; cited from earlier work"}, "HMC3 microglial cells": {"system": "HMC3 microglial cells", "test": "MTT cell viability assay", "conditions": "24, 48 and 72 h, metaxalone 10, 20, 40 μg/mL, staurosporine 100 nM positive control"}}, "data": [{"smiles": "CC1(C)CC[C@]2(NC(=O)C(C)(F)F)CC[C@]3(C)[C@H](C(=O)C=C4[C@@]5(C)C=C(C#N)C(=O)C(C)(C)[C@@H]5CC[C@]43C)[C@@H]2C1", "note": "[RTA-408]", "values": [{"measurement": "mechanical allodynia (von Frey test)", "setting": "CCI mice; CCI mice, dose-dependent", "value": "significantly reversed"}, {"measurement": "thermal hyperalgesia (Hargreaves plantar test)", "setting": "CCI mice; CCI mice, dose-dependent", "value": "significantly reversed"}, {"measurement": "mitochondrial biogenesis (MB)", "setting": "CCI mice; L4-6 spinal cord of CCI mice, NRF-2-dependent", "value": "significantly restored"}, {"measurement": "activity of NRF-2", "setting": "CCI mice; L4-6 spinal cord of CCI mice", "value": "increased"}]}, {"smiles": "Cc1ccc(CN(CC(O)COc2cccc3[nH]ccc23)C(C)(C)C)cc1", "note": "(stereo not drawn) [SR-18292]", "values": [{"measurement": "analgesic effect of formoterol against PINP in presence of PGC-1α inhibitor", "setting": "PINP rats; PINP rats", "value": "partially abolished"}]}, {"smiles": "COc1ccc(CC(C)NCC(O)c2ccc(O)c(NC=O)c2)cc1", "note": "(stereo not drawn) [formoterol]", "values": [{"measurement": "ADRB2 expression, mtDNA copy number and PGC-1α, NRF-1, TFAM protein expression", "setting": "PINP rats; spinal cord of PINP rats", "value": "restored"}]}, {"smiles": "COc1ccc2[nH]cc(CCNC(C)=O)c2c1", "note": "[melatonin]", "values": [{"measurement": "studied parameters (PGC-1α, Mfn2, CoQ10), oxidative stress", "setting": "RIM rats", "value": "significantly preserved all the studied parameters"}]}, {"smiles": "CN(C)C(=N)N=C(N)N", "note": "[metformin]", "values": [{"measurement": "response to moderate oxidative stress and mitochondrial metabolism", "setting": "FM fibroblasts", "value": "improved"}]}, {"smiles": "O=C(NCCN1CCOCC1)c1ccc(Cl)cc1", "note": "[moclobemide]", "values": [{"measurement": "inflammatory process", "setting": "[1]", "value": "attenuate"}]}, {"smiles": "Cc1c(-c2cnccn2)ssc1=S", "note": "[oltipraz]", "values": [{"measurement": "paclitaxel-induced neuropathic pain", "setting": "[2]", "value": "significantly attenuate"}]}, {"smiles": "NNCCc1ccccc1", "note": "[phenelzine]", "values": [{"measurement": "oxidative stress", "setting": "[3]", "value": "significantly reduce"}]}, {"smiles": "CN[C@@H]1C[C@H]2O[C@@](C)([C@@H]1OC)n1c3ccccc3c3c4c(c5c6ccccc6n2c5c31)C(=O)NC4", "note": "[staurosporine]", "values": [{"measurement": "cell viability (MTT)", "setting": "HMC3 microglial cells", "value": "significant reduction in cell viability"}]}]}
